The values below come from patent US11827616B2, “Heterocyclic compounds as pesticides” (Discovery Purchaser Corporation, priority 2018, dated 2023).

What all share (format): in vivo
One experiment has as its system Lucilia cuprina. The experiment in a line: Lucilia cuprina test. The conditions noted are these: application rate 100 ppm; L1 larvae; after 2 days. The procedure, abridged: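 About 20 first-instar larvae were placed in vessels of minced horsemeat with compound at the desired concentration. Compound was dissolved in DMSO and diluted in water. Percent kill scored after 2 days.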

The subject of a further experiment is Meloidogyne incognita. The experiment in a line: Meloidogyne incognita test. The conditions noted are these: application rate 20 ppm; after 14 days. On the procedure: Meloidogyne incognita Test
Solvent: 125.0 parts by weight of acetone
To produce a suitable active compound formulation, 1 part by weight of active compound is mixed with the stated amount of solvent and the concentrate is diluted to the desired concentration with water.
Vessels are filled with sand, active compound solution, an egg/larvae suspension of the southern root-knot nematode (Meloidogyne incognita) and lettuce seeds. The lettuce seeds germinate and the plants develop. The galls develop on the roots.
After 14 days, the nematicidal efficacy in % is determined by the formation of galls. 100% means that no galls were found; 0% means that the number of galls on the treated plants corresponds to the untreated control.

A further experiment has as its system Boophilus microplus. The experiment in a line: Boophilus microplus injection test. The conditions noted are these: application rate 20 μg/animal, after 7 days. The method, boiled down:
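Compound dissolved in DMSO; 1 μl injected into the abdomen of engorged adult female ticks, five per group, kept in climate-controlled room. Efficacy scored after 7 days from fertile egg laying (100% = no fertile eggs; 0% = all fertile), with unclear eggs held ~42 days until hatching.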

Experiment [1] concerns Ctenocephalides felis. The experiment in a line: Ctenocephalides felis oral test. The conditions noted are these: application rate 100 ppm in citrated cattle blood; after 2 days. The method, boiled down:
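About 20 unfed adult cat fleas fed via parafilm membrane on citrated cattle blood containing compound (DMSO formulation). Kill % scored after 2 days, 100% meaning all fleas dead.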

The subject of another experiment is Spodoptera frugiperda. The experiment in a line: Spodoptera frugiperda spray test. The conditions noted are these: application rate 500 g/ha, after 7 days. The procedure, abridged: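 Maize leaf discs sprayed with compound formulated in acetone/dimethylformamide and diluted in water with 1000 ppm alkylaryl polyglycol ether emulsifier. Once dry, discs are infested with fall armyworm caterpillars. Efficacy in % read after 7 days: 100% all caterpillars killed, 0% none killed.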

The subject of another experiment is Phaedon cochleariae. In words: Phaedon cochleariae spray test. Conditions: application rate 500 g/ha, after 7 days. The procedure, abridged:
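Chinese cabbage leaf discs sprayed with compound formulated in acetone/DMF and water with 1000 ppm emulsifier, then infested with mustard beetle larvae once dry. Percent larval kill scored after 7 days (100% = all dead, 0% = none).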

A further experiment concerns Musca domestica. The experiment in a line: Musca domestica test. The conditions noted are these: application rate 100 ppm; adult houseflies; after 2 days. On the procedure: Solvent: dimethyl sulfoxide
To produce a suitable active compound formulation, 10 mg of active compound are mixed with 0.5 ml of dimethyl sulfoxide, and the concentrate is diluted with water to the desired concentration.
Vessels containing a sponge treated with sugar solution and the desired concentration of active compound formulation are populated with 10 adult houseflies (Musca domestica).
After 2 days, the kill in % is determined. 100% means that all of the flies have been killed; 0% means that none of the flies have been killed.

The next experiment has as its system Myzus persicae. In words: Myzus persicae spray test. Conditions: application rate 500 g/ha; after 5 days. On the procedure: Myzus persicae—Spray Test
Solvent: 78 parts by weight of acetone • • 1.5 parts by weight of dimethylformamide
(§1) Emulsifier: alkylaryl polyglycol ether
(§2) To produce a suitable active compound formulation, 1 part by weight of active compound is dissolved with the specified parts by weight of solvent and made up to the desired concentration with water containing an emulsifier concentration of 1000 ppm. To produce further test concentrations, the formulation is diluted with emulsifier-containing water.
Discs of Chinese cabbage leaves (Brassica pekinensis) infested by all stages of the green peach aphid (Myzus persicae) are sprayed with an active compound formulation of the desired concentration.
After 5 days, the efficacy in % is determined. 100% means that all the aphids have been killed; 0% means that no aphids have been killed.

For the next experiment, the system named is Tetranychus urticae. The experiment in a line: Tetranychus urticae spray test, OP-resistant. The conditions noted are these: application rate 500 g/ha; after 6 days. The method, boiled down:
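Bean leaf discs carrying all stages of OP-resistant Tetranychus urticae were sprayed with compound in acetone/dimethylformamide diluted in water containing alkylaryl polyglycol ether emulsifier (1000 ppm). Mortality scored after 6 days as % efficacy (100% = all mites killed).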

For the next experiment, the system named is Rhipicephalus sanguineus. In words: Rhipicephalus sanguineus in vitro contact test with adult brown dog ticks. Conditions: application rate 5 μg/cm^2 (=500 g/ha); after 48 h. The procedure, abridged:
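Glass tubes coated with compound in acetone (900 ppm solution giving 5 μg/cm^2), then 5-10 adult ticks held in the dark at room temperature and ambient humidity. At 48 h, ticks placed on a 45-50° C. hotplate for up to 5 min; motionless or uncoordinated ones scored dead/moribund, giving % efficacy.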

The subject of experiment [2] is Ctenocephalides felis. In words: Ctenocephalides felis in vitro contact test with adult cat fleas. Conditions: application rate 5 μg/cm^2 (=500 g/ha); after 48 h. The procedure, abridged: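 Glass tubes coated with acetone solutions of compound (900 ppm giving 5 μg/cm^2), dried, then held 5-10 adult cat fleas at room temperature and ambient humidity. After 48 h, dead or moribund fleas were scored; efficacy expressed as percent affected.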

The next experiment concerns Nilaparvata lugens. In words: Nilaparvata lugens test. Conditions: application rate 500 g/ha; after 4 days. On the procedure:
(§3) Solvent: 78.0 parts by weight of acetone • • 1.5 parts by weight of dimethylformamide
as §1, §2
Rice plants (Oryza sativa) are sprayed with the active compound formulation of the desired concentration and then infected with the brown planthopper (Nilaparvata lugens).
After 4 days, the efficacy in % is determined. 100% means that all of the planthoppers have been killed; 0% means that none of the planthoppers have been killed.

Experiment [3] has as its system Aedes aegypti strain MONHEIM. The experiment in a line: Aedes test (AEDSAE surface treatment). The conditions noted are these: 24 hours after contact, read-out: efficacy (mortality in %). As to the method: Aedes Test (AEDSAE Surface Treatment)
(§4) Solvent: acetone+2000 ppm rapeseed oil methyl ester (RME)
To produce an appropriate active compound formulation, the active compound is dissolved in the solvent (2 mg/ml). The active compound formulation is pipetted onto a glazed tile and, after it has dried off, adult mosquitoes of the species Aedes aegypti strain MONHEIM are placed onto the treated tile. The exposure time is 30 minutes. 24 hours after contact with the treated surface, mortality in % is determined. 100% means that all mosquitoes have been killed; 0% means that none of the mosquitoes have been killed.

The subject of experiment [4] is Anopheles gambiae strain RSPH (homozygot kdr). In words: Anopheles test (ANPHGB surface treatment). Conditions: 24 hours after contact, read-out: efficacy (mortality in %).
Experiment [5] relates to Anopheles funestus strain FUMOZ-R. In words: Anopheles test (ANPHFU surface treatment). The conditions noted are these: 24 hours after contact, read-out: efficacy (mortality in %). As to the method: Anopheles Test (ANPHFU Surface Treatment)
as §4
To produce an appropriate active compound formulation, the active compound is dissolved in the solvent (2 mg/ml). The active compound formulation is pipetted onto a glazed tile and, after it has dried off, adult mosquitoes of the species Anopheles funestus strain FUMOZ-R (Hunt et al., Med Vet Entomol. 2005 Sep.; 19 (3):271-5) are placed onto the treated tile. The exposure time is 30 minutes.
24 hours after contact with the treated surface, mortality in % is determined. 100% means that all mosquitoes have been killed; 0% means that none of the mosquitoes have been killed.

The next experiment relates to Nezara viridula. In words: Nezara viridula spray test. Conditions: application rate 500 g/ha; after 4 days. As to the method:
Nezara viridula—Spray Test
as §3, §1, §2
Barley plants (Hordeum vulgare) infected with larvae of the Southern green shield bug (Nezara viridula) are srayed with an active compound formulation of the desired concentration.
After 4 days, the efficacy in % is determined. 100% means that all of the shield bugs have been killed; 0% means that none of the shield bugs have been killed.

The mark [6] stands for this setting: application rate 20 mg/m^2, exposure 30 minutes.
[7] abbreviates: application rate 100 mg/m^2, exposure 30 minutes.

`CC(=O)N1CCC(Oc2ccc(COc3ccc(Cl)c4ccccc34)cn2)C1` (stereo not shown) [Example 4]: the “efficacy (kill in %)” value is reported as 100% with Lucilia cuprina, 100% with Ctenocephalides felis [1] and 80% with Musca domestica. Besides, in the experiment with Meloidogyne incognita, the “nematicidal efficacy (formation of galls)” value was found to be 90%. In the experiment on Boophilus microplus, the “efficacy (laying of fertile eggs)” value came to 100%. Besides, the efficacy in the experiment with Spodoptera frugiperda and in the experiment on Phaedon cochleariae was 100% throughout.
As for `CON(C)CCOc1ccc(COc2ccc(F)c(-c3cccc(OC(F)(F)F)c3)c2)cn1` [Example 10], the efficacy in the experiment with Myzus persicae came to 90%; with Spodoptera frugiperda, 100%; with Phaedon cochleariae, 100%; in the experiment on Tetranychus urticae it was 100%.
Take `CON(C)CCOc1cnc(COc2ccc3oc4ccccc4c3c2)c(F)c1` [Example 20]: in the experiment on Rhipicephalus sanguineus, the “efficacy (ticks dead or moribund)” value stood at 100%. In addition, the “efficacy (fleas dead or moribund)” value in the experiment on Ctenocephalides felis [2] amounted to 100%. The “efficacy (kill in %)” value in the experiment with Lucilia cuprina amounted to 100%; in the experiment on Ctenocephalides felis [1], 95%. The “efficacy (laying of fertile eggs)” value with Boophilus microplus is given as 100%. Moreover, the efficacy with Nilaparvata lugens, in the experiment on Spodoptera frugiperda and in the experiment with Phaedon cochleariae was 100% throughout.
Turning to `CON(C)CCOc1cnc(COc2cccc3c(Cl)c(Cl)ccc23)c(F)c1` [Example 22, 2-[(6-{[(5,6-dichloro-1-naphthyl)oxy]methyl}-5-fluoropyridin-3-yl)oxy]-N-methoxy-N-methylethanamine], the “efficacy (ticks dead or moribund)” value in the experiment on Rhipicephalus sanguineus came out at 100%. Besides, in the experiment on Ctenocephalides felis [2], the “efficacy (fleas dead or moribund)” value is 100%. For the same molecule, the mortality at 20 mg/m2 in [3] (setting [6]), in experiment [4] (setting [6]) and in [5] (setting [6]) was 80 to 100% throughout. Also, the mortality at 100 mg/m2 in experiment [3] (setting [7]), in experiment [4] (setting [7]) and in [5] (setting [7]) was 80 to 100% throughout. Also, the “efficacy (kill in %)” value with Lucilia cuprina worked out at 100%; in the experiment with Ctenocephalides felis [1], 90%. Also, in the experiment on Boophilus microplus (Rhipicephalus microplus, 168 h, read-out: efficacy (laying of fertile eggs)), the pest or weed control at 0.02 mg was found to be 100%. For the same molecule, in the experiment on Nilaparvata lugens, the efficacy was found to be 90%. In addition, the pest or weed control at 500 g/ha stood at 100% in the experiment on Spodoptera frugiperda (Spodoptera frugiperda, 168 h, read-out: efficacy) and 100% in the experiment on Phaedon cochleariae (Phaedon cochleariae, 168 h, read-out: efficacy).
As to `CON(C)CCOc1cnc(COc2ccc(Cl)c(-c3cccc(OC(F)(F)F)c3)c2)c(F)c1` [Example 48], in the experiment on Rhipicephalus sanguineus, the “efficacy (ticks dead or moribund)” value was found to be 100%. Further, the “efficacy (fleas dead or moribund)” value with Ctenocephalides felis [2] is 100%. Moreover, the “efficacy (kill in %)” value in the experiment with Lucilia cuprina came out at 100%. Besides, in the experiment with Boophilus microplus, the “efficacy (laying of fertile eggs)” value is given as 100%. Moreover, the efficacy turned out to be 90% with Myzus persicae, 100% with Spodoptera frugiperda, 100% in the experiment with Phaedon cochleariae and 100% in the experiment on Tetranychus urticae.
For the molecule `CON(C)CCOc1cnc(COc2ccc(F)c(-c3cccc(OC(F)(F)F)c3)c2)c(F)c1` [Example 50], the efficacy in the experiment with Myzus persicae is 90%; in the experiment with Nezara viridula, 100%; in the experiment with Nilaparvata lugens, 100%; with Spodoptera frugiperda, 100%; with Phaedon cochleariae, 100%; in the experiment on Tetranychus urticae, 100%.
`CON(C)CCOc1cnc(COc2cccc(-c3cccc(OC(F)(F)F)c3)c2)c(F)c1` [Example 53]: the “efficacy (ticks dead or moribund)” value in the experiment with Rhipicephalus sanguineus turned out to be 100%. For the same molecule, the “efficacy (fleas dead or moribund)” value with Ctenocephalides felis [2] stood at 100%. For the same molecule, in the experiment on Lucilia cuprina, the “efficacy (kill in %)” value is reported as 100%. For the same molecule, the “efficacy (laying of fertile eggs)” value in the experiment on Boophilus microplus was found to be 100%. For the same molecule, the efficacy in the experiment on Myzus persicae worked out at 90%; in the experiment with Nilaparvata lugens, 100%; in the experiment with Spodoptera frugiperda it was 100%; with Phaedon cochleariae it was 100%; in the experiment with Tetranychus urticae, 100%.
Consider `CON(C)CCOc1cnc(COc2ccc(F)c(-c3cccc(OC(F)(F)F)c3)c2)c(C)c1` [Example 59], for which the “efficacy (ticks dead or moribund)” value in the experiment on Rhipicephalus sanguineus is recorded as 100%. Besides, in the experiment with Ctenocephalides felis [2], the “efficacy (fleas dead or moribund)” value was determined as 100%. The “efficacy (kill in %)” value with Lucilia cuprina was 100%. Also, the “efficacy (laying of fertile eggs)” value in the experiment on Boophilus microplus was 100%. The efficacy came to 90% in the experiment with Myzus persicae, 100% with Spodoptera frugiperda, 83% in the experiment with Phaedon cochleariae and 100% in the experiment with Tetranychus urticae.
